# Data reported in patent US7943606B2, “Compositions and methods to control abnormal cell growth” (CanCure Laboratories, LLC, priority 2005, dated 2011).
# Read-outs that look alike come from different tables or passages of the source.
# How the values were obtained:
# [1] = Viability of NIH 3T3 normal fibroblasts (MTT assay); type: cell-based; details: mouse
# Protocol: (§1) To quantify cell death, around the time when significant and characteristic morphological changes took place, cells were pulse-labeled for 10 minutes with [^3H]thymidine to measure DNA activity as described elsewhere [Tomono, M. and Kiss, Z. (1995), “Ethanol enhances the stimulatory effects of insulin and insulin-like growth factor-I on DNA synthesis in NIH 3T3 fibroblasts,” Biochem. Biophys. Res. Commun. 208, 63-67]. Also, cells were collected as suspensions using trypsin, an established method in cell biology, followed by re-plating of cells in fresh tissue culture medium. If no viable cells were obtained after one week in culture, it meant that the cells at the time of re-plating were dead. Survival values obtained with untreated cells were considered 100%. For the determination of relative number of viable cells after treatments, in most cases the MTT assay was used. This calorimetric assay is based on the ability of living cells, but not dead cells, to reduce 3-(4,5-dimethyl thiazol-2-yl)-2,5-diphenyltetrazolium bromide [Carmichael, J, De Graff, W. G., Gazdar, A. F., Minna, J. D. and Mitchell, J. B. (1987), “Evaluation of tetrazolium-based semi-automated calorimetric assay: Assessment of chemosensitivity testing,” Cancer Res. 47, 936-942]. For this assay, cells were plated in 96-well plates, and the MTT assay was performed both in untreated and treated cell cultures. The MTT assay also was performed at the start of treatments to allow assessment of proliferation rates in the control and treated cell cultures.
# The NIH 3T3 (normal) mouse fibroblast, A431 human epidermoid adenocarcinoma, and MCF-7 human breast cancer cells were cultured in DMEM medium containing 10% FBS. The MEL-28 human melanoma cells were cultured in MEM medium containing 10% FBS. The HT-29 human colon adenocarcinoma cells were cultured in McCoy's 5a medium containing 10% FBS. The A549 human lung carcinoma cells were maintained in Ham's F12K medium containing 10% FBS. Cells were seeded into 96-well plates and treated at ˜70-90% confluency. Two hours before treatments the medium was changed for fresh 10% serum medium, and then the cells were incubated for 72 hours in the presence of 0-200 μM of CCompound1 (●) or CCompound3 (CCDTHT) (▴), as indicated. The MTT assay was used to determine cell viability after treatments. The values, shown in FIGS. 5A-5F and expressed as percent decrease in viability compared to the untreated control cells, are the mean±std. dev. of 8 incubations in one experiment. Similar results were obtained in another experiment.
# (§2) NIH3T3, T47D, A-431, HT-29, and MEL-28 cells were cultured as indicated earlier. CaOV-3 human ovarian cancer cells were cultured in DMEM containing 10% FBS. ZR-75-1 human estrogen receptor-positive breast cancer cells were maintained in RPMI 1640 medium supplemented with 10% FBS. HTB-157 human fetal fibroblasts, MEL-24 human malignant melanoma cells, Hep G2 human hepatoblastoma cells, and CaCO-2 human colon adenocarcinoma cells were maintained in Eagles's MEM containing 10% FBS. MB-231 human estrogen receptor-negative breast cancer cells were maintained in Leibovitz's L-15 medium supplemented with 10% FBS. Cells were seeded into 96-well plates and treated at ˜70-90% confluency. Two hours prior to treatments the medium was changed for fresh 10% serum medium, and then the cells were incubated for 10 days in the absence (□) or presence of 50 μM CCDTHT ? or 100 μM CCDTHT (▪). The medium was changed and the cells were re-treated on days 3 and 6. The MTT assay was used to determine cell viability on day 10. The data, shown in FIG. 6, are the mean±std. dev. of 8 incubations in one experiment. (The experiment was repeated twice with similar results).
# NIH 3T3, MEL-28, MEL-24, CaOV-3, ZR-75-1, and T47D cells were cultured as described above. The OVCAR human ovarian cancer cells were cultured in DMEM containing 10% FBS. Cells were seeded into 96-well plates and used at ˜60-80% confluency. […]
# [2] = Viability of HTB-157 fetal (normal) fibroblasts; type: cell-based, human; details: human, MTT
# Protocol: as §1, §2
# (§3) HTB-157, MEL-28, CaOV-3, T47D, and A-431 cells were maintained as indicated earlier. The 3A-SubE post crisis placenta cells (capable of unlimited proliferation) were maintained in Eagle's MEM containing 10% FBS. Cells were seeded into 96-well plates and treated at ˜70-90% confluency. Two hours before treatments the medium was changed for fresh 10% serum medium, and then cells were incubated for 48 hours in the absence (□) or presence of 50 μM CCDTHT ? or 100 μM CCDTHT (▪). Half of the cultures was analyzed by the MTT assay at this point, and the other half of the cultures was incubated for an additional 96 hours in fresh 10% serum-containing medium without CCDTHT followed by the MTT assay. The data, shown in FIG. 8, are the mean±std. dev. of 8 incubations in one experiment. (Similar results were obtained in another experiment).
# (§4) HaCaT keratinocytes, frequently used immortalized model cells for studying psoriatic keratinocytes, and HTB-157 human fetus lung fibroblasts were cultured in 10% FBS-containing Dulbecco's modified Eagle's medium (DMEM). […]
# HTB-157 cells = assay: Viability of HTB-157 fetal (normal) fibroblasts; type: cell-based, human
# Protocol: as §1, §2, §3, §4
# 966 SK cells = assay: Viability of 966 SK skin fibroblasts (MTT assay); type: cell-based, human; details: 50 and 100 μM, 72 hours
# Protocol: To quantify cell death, around the time when significant and characteristic morphological changes took place, cells were pulse-labeled for 10 minutes with [^3H]thymidine to measure DNA activity as described elsewhere [Tomono, M. and Kiss, Z. (1995), “Ethanol enhances the stimulatory effects of insulin and insulin-like growth factor-I on DNA synthesis in NIH 3T3 fibroblasts,” Biochem. Biophys. Res. Commun. 208, 63-67]. Also, cells were collected as suspensions using trypsin, an established method in cell biology, followed by re-plating of cells in fresh tissue culture medium. If no viable cells were obtained after one week in culture, it meant that the cells at the time of re-plating were dead. Survival values obtained with untreated cells were considered 100%. For the determination of relative number of viable cells after treatments, in most cases the MTT assay was used. This calorimetric assay is based on the ability of living cells, but not dead cells, to reduce 3-(4,5-dimethyl thiazol-2-yl)-2,5-diphenyltetrazolium bromide [Carmichael, J, De Graff, W. G., Gazdar, A. F., Minna, J. D. and Mitchell, J. B. (1987), “Evaluation of tetrazolium-based semi-automated calorimetric assay: Assessment of chemosensitivity testing,” Cancer Res. 47, 936-942]. For this assay, cells were plated in 96-well plates, and the MTT assay was performed both in untreated and treated cell cultures. […]
smiles,measurement,setting,value
"CC[N+](C)(CC)CCOCc1ccc2sc3ccccc3c(=O)c2c1.[I-] [CCDTHT, N,N-diethyl-N-methyl-2-[(9-oxo-9H-thioxanthen-2-yl)methoxy]-ethanaminium iodide]","cytotoxicity at 10 days, 100 μM",[1],≤ 50%
same,"cytotoxicity at 10 days, 100 μM","[2]; HTB-157 fetal (normal) fibroblasts, 100 μM, 10 days, read-out: reduction in the number of viable cells, HTB-157",≤ 50%
same,cytotoxicity at 48 h,"[2]; HTB-157 fetal lung (normal) fibroblasts, 50-100 μM, 48 hours, read-out: decrease in viability of HTB-157 fibroblasts",20 to 22%
same,"reversibility: proliferation in fresh medium after treatment, HTB-157","HTB-157 cells; 100 μM 48 hours, then 96 hours without CCDTHT",clearly resumed proliferation
same,"decrease in DNA synthesis, HTB-157 fibroblasts","HTB-157 cells; 100 μM, 48 hours",about 16%
same,numbers of re-plated untreated and treated HTB-157 fibroblasts,"HTB-157 cells; 100 μM, re-plated after treatment",practically no difference
same,decrease in viability of HTB-157 fibroblasts,"HTB-157 cells; 50-100 μM, 48 hours, MTT",19-20%
same,"sensitivity compared with HaCaT cells, HTB-157 fibroblasts","HTB-157 cells; 50 and 100 μM, 72 hours, MTT",significantly less sensitive
same,"sensitivity compared with HaCaT cells, 966 SK fibroblasts",966 SK cells,significantly less sensitive
same,solubility in water,Solubility in water,sufficiently soluble in water for injection
same,solubility in water,Solubility in water; listed as CCompound3,soluble in water
